Like-named read-outs stand apart in the source and are kept apart here.
Biological target: 11β-hsd-1 enzyme (Homo sapiens, UniProt P28845)
Assay: 11β-hsd-1 enzyme assay, percentage of inhibition (3H-cortisone to cortisol, radio-HPLC)
Type: biochemical
Conditions: for inhibition at 0.1 µM: read-out: % inh @ 0.1 uM

Sequence of 11β-hsd-1 enzyme (P28845 whole entry, species assumed): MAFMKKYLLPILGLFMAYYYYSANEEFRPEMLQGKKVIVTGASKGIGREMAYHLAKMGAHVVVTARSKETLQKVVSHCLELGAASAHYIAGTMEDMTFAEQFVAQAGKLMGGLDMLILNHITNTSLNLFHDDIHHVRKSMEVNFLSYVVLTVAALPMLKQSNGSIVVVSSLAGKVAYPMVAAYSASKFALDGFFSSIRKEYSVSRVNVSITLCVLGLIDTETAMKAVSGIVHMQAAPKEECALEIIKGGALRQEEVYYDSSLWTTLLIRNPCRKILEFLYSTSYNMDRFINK

SMILES | inhibition at 0.1 µM (0.1 uM) [%] | other results
Cc1cc(CC(=O)N2CCCCC2)nc(NS(=O)(=O)c2cccc(Cl)c2C)c1 [Example 14] | 25.9 | –
CCN(CC)C(=O)Cc1cccc(NS(=O)(=O)c2ccc(C)cc2)n1 [Example 23] | 4.9 | –
Cc1cccc(NS(=O)(=O)Cc2cc(Cl)cc(Cl)c2)n1 [Example 75] | 19.2 | –
Cc1nnc2n1CCN(S(=O)(=O)Nc1ccc3ccccc3n1)CC2 [Example 312] | – | inhibition at 0.1 µM (compound at 0.1 uM): 6.9%
Cc1cccc(NS(=O)(=O)c2ccc(-c3ncccn3)nc2)n1 [Example 261] | – | inhibition at 0.1 µM (compound at 0.1 uM): 2.6%
CCOc1ccc(-c2ccc(S(=O)(=O)Nc3cccc(C)n3)cc2C)cc1 [Example 229] | – | inhibition at 0.1 µM (compound at 0.1 uM): 9%
COc1ccc(C)nc1NS(=O)(=O)c1ccc(C(F)(F)F)cc1 [Example 89] | 3.7 | –
Cc1ccc(S(=O)(=O)Nc2cccc(C)n2)cc1 [Example 49] | 82.6 | –
COc1cc(-c2ccc(C#N)cc2)ccc1S(=O)(=O)Nc1cccc(C)n1 [Example 276, 4′-Cyano-3-methoxy-biphenyl-4-sulfonic acid (6-methyl-pyridin-2-yl)-amide] | – | inhibition at 0.1 µM (compound at 0.1 uM): 60.1%
CN(C)Cc1cccc(NS(=O)(=O)c2ccc(-c3ccc(C#N)cc3)cc2)n1 [Example 79] | 8.1 | –
Cc1cccc(N(C)S(=O)(=O)c2ccc(-c3ccc(C#N)cc3)cc2)n1 [Example 110, 4′-Cyano-biphenyl-4-sulfonic acid methyl-(6-methyl-pyridin-2-yl)-amide] | 8.1 | –
Cc1cccc(NS(=O)(=O)c2ccc(-c3cccc(Cl)c3Cl)c(C)c2)n1 [Example 237] | – | inhibition at 0.1 µM (compound at 0.1 uM): 58%
CCc1cccc(NS(=O)(=O)c2ccc(C(C)C)cc2)n1 [Example 76] | 15.6 | –
COc1ccc(C)nc1NS(=O)(=O)c1ccc(-c2ccc(C)cc2)cc1 [Example 278] | – | inhibition at 0.1 µM (compound at 0.1 uM): 42.8%
COc1cccc(NS(=O)(=O)c2ccc(C(F)(F)F)cc2)n1 [Example 62] | 1.3 | –
Cc1c(Cl)cccc1S(=O)(=O)Nc1cccc(NC(=O)C2CCCN2)n1 (centres unmarked) [Example 296, Pyrrolidine-2-carboxylic acid [6-(3-chloro-2-methyl-benzenesulfonylamino)-pyridin-2-yl]-amide] | – | inhibition at 0.1 µM (compound at 0.1 uM): 16%
Cc1c(Cl)cccc1S(=O)(=O)Nc1cccc(CC(=O)N2CCN(Cc3ccccc3)CC2)n1 [Example 12] | – | inhibition at 0.1 µM: 21.5%
N#Cc1ccc(-c2ccc(S(=O)(=O)Nc3cc(O)c4ccccc4n3)cc2)cc1 [Example 105] | 16.9 | –
Cc1c(Cl)cccc1S(=O)(=O)Nc1cccc(CC(=O)N(CCC#N)C2CC2)n1 [Example 29] | 10.9 | –
Cc1nc(NS(=O)(=O)c2ccc(-c3ccc(C#N)cc3)cc2)ccc1C#N [Example 101] | 32 | –
CCN(CC)C(=O)Cc1cc(C)cc(NS(=O)(=O)c2cccc(Cl)c2C)n1 [Example 15] | 23.6 | –
Cc1cc(N)nc(NS(=O)(=O)c2ccc(-c3ccc(C#N)cc3)cc2)c1 [Example 113, 4′-Cyano-biphenyl-4-sulfonic acid (6-amino-4-methyl-pyridin-2-yl)-amide] | 100 | –

SMILES | inhibition at 0.1 µM (0.1 uM) [%] | other results
Cc1cccc(NS(=O)(=O)N2Cc3ccccc3C2)n1 [Example 298] | – | inhibition at 0.1 µM (compound at 0.1 uM): 13.3%
Cc1cccc(NS(=O)(=O)c2ccc(-c3ccc(O)cc3)cc2C)n1 [Example 199] | – | inhibition at 0.1 µM (compound at 0.1 uM): 55%
CCc1ccc(-c2ccc(S(=O)(=O)Nc3cccc(C)n3)cc2C)cc1 [Example 235] | – | inhibition at 0.1 µM (compound at 0.1 uM): 87%
O=S(=O)(Nc1ccc2nc[nH]c2c1)c1ccc(-c2ccc(F)cc2)cc1 [Example 60] | 31.9 | –
COc1ccccc1-c1ccc(S(=O)(=O)Nc2cccc(C)n2)cc1 [Example 120] | 71.7 | –
Cc1cccc(NS(=O)(=O)Cc2ccc(Cl)c(Cl)c2)n1 [Example 74] | 28.9 | –
O=S(=O)(Nc1ccc2cc[nH]c2c1)c1ccc(-c2ccc(F)cc2)cc1 [Example 57] | 4.5 | –
Cc1cccc(NS(=O)(=O)c2ccc(-c3ccccn3)cc2)n1 [Example 259, N-(6-Methyl-pyridin-2-yl)-4-pyridin-2-yl-benzenesulfonamide trifuoroacetate] | – | inhibition at 0.1 µM (compound at 0.1 uM): 30%
Cc1cccc(NS(=O)(=O)c2ccc(-c3cn[nH]c3)cc2)n1 [Example 250] | – | inhibition at 0.1 µM (compound at 0.1 uM): 17%
COc1cccc(NS(=O)(=O)c2ccc(-c3ccc(C#N)cc3)cc2)n1 [Example 78] | 8.2 | –
Cc1cccc(NS(=O)(=O)c2ccc(-c3cn(C)cn3)cc2)n1 [Example 260] | – | inhibition at 0.1 µM (compound at 0.1 uM): 14.8%
Cc1c(S(=O)(=O)Nc2cccc(CN(C)C)n2)sc2ccc(Cl)cc12 [Example 84] | 26.4 | –
Cc1cccc(NS(=O)(=O)N2CCN3CCC[C@H]3C2)n1 [Example 302] | – | inhibition at 0.1 µM (compound at 0.1 uM): 18.1%
CCOC(=O)Cc1cccc(NS(=O)(=O)c2ccc(C(F)(F)F)cc2)n1 [Example 5] | 0.3 | –
CCN(CC)C(=O)Cc1cccc(NS(=O)(=O)c2ccc(C(C)C)cc2)n1 [Example 25] | 42.8 | –
COC(=O)c1cccc(NS(=O)(=O)c2cccc(Cl)c2C)n1 [Example 4] | 23.9 | –
Cc1cccc(NS(=O)(=O)N2CCC(c3ccncc3)C2)n1 (centres unmarked) [Example 297, 3-Pyridin-4-yl-pyrrolidine-1-sulfonic acid (6-methyl-pyridin-2-yl)-amide] | – | inhibition at 0.1 µM (compound at 0.1 uM): 3.4%
Cc1cccc(NS(=O)(=O)c2ccc(-c3cnco3)cc2)n1 [Example 264, N-(6-Methyl-pyridin-2-yl)-4-oxazol-5-yl-benzenesulfonamide] | – | inhibition at 0.1 µM (compound at 0.1 uM): 39.7%
Cc1cccc(NS(=O)(=O)c2ccc(F)cc2F)n1 [Example 55] | 7.4 | –
Cc1cccc(NS(=O)(=O)c2ccc(-c3ccc(O)cc3)cc2)n1 [Example 252] | – | inhibition at 0.1 µM (compound at 0.1 uM): 44%
Cc1cc(C)nc(NS(=O)(=O)c2cccc(Cl)c2C)n1 [Example 58] | 4 | –
Cc1ccc(NS(=O)(=O)c2ccc(-c3ccccc3)cc2)nc1 [Example 66] | 33.8 | –

SMILES | inhibition at 0.1 µM (0.1 uM) [%] | other results
Cc1cc(C)nc(NS(=O)(=O)c2ccc(C(F)(F)F)cc2)c1 [Example 45] | – | % inh @ 0.1 uM (0.1 uM): 35%
Cc1cccc(NS(=O)(=O)c2ccc(C#N)cc2Cl)n1 [Example 53] | 10.1 | –
Cc1cc(C)nc(NS(=O)(=O)c2cccc(Cl)c2C)c1 [Example 44] | 16 | –
Cc1cccc(NS(=O)(=O)c2ccc(-c3cc(Cl)ccc3Cl)cc2)n1 [Example 134] | 83.5 | –
Cc1cccc(NS(=O)(=O)c2ccc(Oc3ccccc3)cc2)n1 [Example 47] | 21 | –
Cc1cccc(NS(=O)(=O)c2ccc(-c3ccccc3Cl)cc2)n1 [Example 125] | 87.8 | –
Cc1cccc(NS(=O)(=O)c2ccc(-c3ccccc3C)cc2)n1 [Example 126] | 77.6 | –
Cc1c(Cl)cccc1S(=O)(=O)Nc1cccc(CC(=O)NC23CC4CC(CC(C4)C2)C3)n1 [Example 27, N-Adamantan-1-yl-2-[6-(3-chloro-2-methyl-benzenesulfonylamino)-pyridin-2-yl]-acetamide] | 1.9 | –
CC(=O)Nc1nc(C)c(S(=O)(=O)Nc2cc(C)cc(C)n2)s1 [Example 100] | 19.2 | –
Cc1ccnc(NS(=O)(=O)c2ccc(-c3ccccc3)cc2)n1 [Example 59] | 3.8 | –
COc1ccc(-c2ccc(S(=O)(=O)Nc3cccc(C)n3)cc2)c(C)c1 [Example 255] | – | inhibition at 0.1 µM (compound at 0.1 uM): 64.6%
COC(=O)CCc1ccc(NS(=O)(=O)c2cccc(Cl)c2C)nc1 [Example 3] | 19.6 | –
Cc1cccc(NS(=O)(=O)c2ccc(-c3ccccc3F)c(C)c2)n1 [Example 230] | – | inhibition at 0.1 µM (compound at 0.1 uM): 23%
Cc1cccc(NS(=O)(=O)c2ccc(-c3ccc(C(N)=O)cc3)cc2)n1 [Example 262, 4′-(6-Methyl-pyridin-2-ylsulfamoyl)-biphenyl-4-carboxylic acid amide] | – | inhibition at 0.1 µM (compound at 0.1 uM): 45.7%
Cc1c(Cl)cccc1S(=O)(=O)Nc1cccc(CC(=O)NCc2ccc(C(F)(F)F)cc2)n1 [Example 13] | 9.1 | –
COC(=O)c1cccc(NS(=O)(=O)c2ccc(-c3ccc(C#N)cc3)cc2)n1 [Example 7] | 7.7 | –
Cc1cccc(NS(=O)(=O)c2c(Cl)nc3sccn23)n1 [Example 80] | 8 | –
CSc1ccc(-c2ccc(S(=O)(=O)Nc3cccc(C)n3)cc2)cc1 [Example 129] | 86.3 | –
Cc1cccc(NS(=O)(=O)c2ccc(-c3ccc(F)c(F)c3)c(C)c2)n1 [Example 244] | – | inhibition at 0.1 µM (compound at 0.1 uM): 86%
COc1ccc(C(C)C)cc1-c1ccc(S(=O)(=O)Nc2cccc(C)n2)cc1C [Example 239] | – | inhibition at 0.1 µM (compound at 0.1 uM): 65%

More lines, main results first:

inhibition at 0.1 µM (0.1 uM) [%] | SMILES | other results
91.2 | Cc1cccc(NS(=O)(=O)c2ccc(-c3ccc4c(c3)OCO4)cc2)n1 [Example 138] | –
29.5 | COc1ccc(F)cc1-c1ccc(S(=O)(=O)Nc2cccc(C)n2)cc1 [Example 147] | –
83.8 | CCSc1ccc(-c2ccc(S(=O)(=O)Nc3cccc(C)n3)cc2)cc1 [Example 141] | –
49.1 | COc1ccc(-c2ccc(S(=O)(=O)Nc3cccc(C)n3)cc2)c(OC)c1 [Example 135] | –
59.8 | Cc1cccc(NS(=O)(=O)c2ccc(/C=C/c3ccccc3)cc2)n1 [Example 151] | –
88 | Cc1cccc(-c2ccc(S(=O)(=O)Nc3cccc(C)n3)c(C)c2)c1 [Example 189] | –
20.4 | CC(=O)Nc1ccc(-c2ccc(S(=O)(=O)Nc3cccc(C)n3)cc2)cc1 [Example 149] | –
86.8 | Cc1cccc(NS(=O)(=O)c2ccc(-c3ccc(OC(F)(F)F)cc3)cc2)n1 [Example 144] | –
79 | Cc1cccc(NS(=O)(=O)c2ccc(-c3ccc4ccccc4c3)cc2)n1 [Example 137] | –
91 | Cc1cccc(NS(=O)(=O)c2ccc(-c3ccc(Cl)c(Cl)c3)cc2)n1 [Example 140] | –
84.5 | Cc1cccc(NS(=O)(=O)c2ccc(-c3ccc(F)cc3F)cc2)n1 [Example 142] | –
79.3 | Cc1cccc(NS(=O)(=O)c2ccc(-c3ccc(F)c(C)c3)cc2)n1 [Example 150] | –
75.3 | Cc1cccc(NS(=O)(=O)c2ccc(-c3cccc(OC(F)(F)F)c3)cc2)n1 [Example 153] | –
